Values quoted from earlier work in patent US6559183B1, “Nano-emulsion of 5-aminolevulinic acid” (ASAT AG Applied Science & Technology, priority 1998, dated 2003).

Conditions: high concentrations required for clinical application, neutral to basic pH range, 25 h

stability in aqueous solutions: unstable
SMILES: NCC(=O)CCC(=O)O [aminolevulinic acid, 5-aminolevulinic acid]
